Assay [1] deals with Cx43 HCs. As to conditions: cited from earlier work. The source says: However, this concentration decreases the NPo of Cx43 HCs by ~83% (Figure 2B; for traces, see Figure 3).
Assay [2] has as its target T1, Panx1 channels (Rattus norvegicus, UniProt P60570).
T1 construct: expressed in transfected cells; host or cells: C6 glioma cells (C6-Panx1), gift of Dr Christian C; Naus
As to conditions: 200 µM extracellular; high extracellular K^+; cited from earlier work. An excerpt:
(§1) Connexins and pannexins are two ubiquitous but distinct protein families forming membrane hemichannels (HCs) and channels in the plasma membrane, respectively. They facilitate the exchange of ions and small molecules (MW ≤ 1.5 kDa) between the intracellular and the extracellular compartment upon opening. Among these respective families, connexin-43 (Cx43) and pannexin-1 (Panx1) are the most abundant isotypes in the human body expressed in a wide array of tissues. Panx1 and Cx43 have several common properties, including the following: (i) an analogous tetra-spanning transmembrane topology with ...

The test system of assay [3] is Cx43 or Panx1 channels. Conditions: 100 μM extracellular; HeLa cells expressing Cx43 or Panx1; cited from earlier work.
From the text: as §1

For assay [4], the system named is Cx43 HCs. Description: Whole-cell patch-clamp, unitary Cx43 hemichannel current activity in HeLa-Cx43 cells. The assay is classed as cell-based. As to conditions: for nominal open probability (NPo) of Cx43 HCs: HeLa-Cx43, step −30 to +70 mV, 30 s, mean ± SEM, control 0.48 ± 0.02; for conductance γ of Cx43 HC, subconductance state, transition histogram / unitary conductance γ of Cx43 HC, fully open state, transition histogram: Figure 3B, mean ± SD. An excerpt:
(§2) We used HeLa cells stably transfected with Cx43 (HeLa-Cx43 [56]); endogenous expression of Panx1 is very low or absent in non-transfected HeLa cells. C6 glioma cells stably transfected with Panx1 (C6-Panx1, C-terminally myc-tagged; kind gift of Dr Christian C. Naus, University of British Columbia, Canada) were used for the Panx1 channel studies; Cx43 expression is low or undetectable [61] in these cells. HeLa cells were maintained in Dulbecco’s modified Eagle’s medium (DMEM; Invitrogen, Gent, Belgium), and C6 cells were grown in DMEM:Ham’s F12 (1:1—Invitrogen, Merelbeke, Belgium), all supplemented with 10% fetal bovine serum (FBS), 2 mM glutamine, 10 U/mL penicillin, 10 µg/mL streptomycin and 0.25 µg/mL fungizone. Stable exogenous expressions were maintained by supplementation of 1 and 3 µg/mL puromycin (Sigma-Aldrich, Bornem, Belgium) for HeLa-Cx43 and C6-Panx1 cells, respectively. Stable transfectants were subcultured into puromycin-free medium 2 days prior to experimentation. Cells were maintained at 37 °C and 10% (HeLa-Cx43) or 5% (C6-Panx1) CO2.
(§3) All experimental data were obtained with the patch-clamp technique in whole-cell recording mode on HeLa-Cx43 and C6-Panx1 cells. Extracellular solution was composed of the following (in mM): 150 NaCl, 4 CsCl, 2 CaCl2, 2 MgCl2, 2 pyruvic acid, 5 glucose and 5 HEPES at pH of 7.4, while the pipette solution consisted of the following (in mM): 125 CsCl, 10 sodium aspartate (NaAsp), 0.26 CaCl2, 1 MgCl2, 2 EGTA, 10 tetraethylammonium (TEA)-Cl and 5 HEPES at pH 7.2. The free Ca^2+ concentration of the pipette solution was estimated to be ~50 nM as calculated with WEBMAX (https://somapp.ucdmc.ucdavis.edu/pharmacology/bers/maxchelator/webmaxc/webmaxcS.htm; accessed on 20 September 2020). Whole-cell recording was performed under control conditions and in the presence of Gap19 or ^10Panx1. Gap19 was included in the pipette solution, while ^10Panx1 was added externally and preincubated for 45 min. Recordings were commenced 2 min after establishment of the whole-cell configuration. Currents were recorded with an EPC 7 PLUS patch-clamp amplifier (HEKA Elektronik, Germany). Unitary current activities were elicited by stepping the cells from a holding potential of −30 mV to a membrane potential (Vm) of +70 mV for 30 s. Data were digitized at 4 KHz using an NI USB-6221 data acquisition device (National Instruments, Austin, TX, USA) and WinWCP acquisition software designed by Dr. J. Dempster (University of Strathclyde, United Kingdom). Measured currents were filtered by a 7-pole Bessel low-pass filter at 1 KHz cut-off frequency. Transition analysis was performed as reported in [16]. Unitary channel conductances were determined from transition histograms as well as from all-point histograms and were obtained by fitting their frequencies to Gaussian distributions. Channel opening activity is expressed as nominal open probability NPo, denoting the number of active channels in the patch multiplied by the open probability.
(§4) Data were processed using Clampfit version 11.2 (Molecular Devices, San Jose, USA) and HemiGUI software as previously described. Results are expressed as mean ± SEM (unless otherwise stated), with n giving the number of traces, N the number of cells, and N the number of experiments on different cell culture dishes. Multiple groups were compared by one-way analysis of variance with post-hoc Dunnett’s or Bonferroni multiple comparison tests, making use of GraphPad PRISM 5.0 (GraphPad Software, Inc., La Jolla, CA). Results were considered statistically significant when p ≤ 0.05 (*; # for p ≤ 0.05, **; ## for p ≤ 0.01, ***; ### for p ≤ 0.001, and ****; #### for p ≤ 0.0001).
(The patch-clamp technique gives a direct electrical read-out from membranes.)

The target of assay [5] is T1, Panx1 channels. Description: Whole-cell patch-clamp, unitary Panx1 channel current activity in C6-Panx1 cells. Conditions: for nominal open probability (NPo) of Panx1 channels: C6-Panx1, step −30 to +70 mV, 30 s, mean ± SEM, control 0.37 ± 0.02. The assay is classed as cell-based.
From the text: as §2, §3, §4

The test system of assay [6] is Cx43 C-terminal tail. As to conditions: cited from earlier work.
[7] abbreviates: 100 μM Gap19 intracellular, N = 12, n = 98.
Where [8] appears, read: 200 μM Gap19 intracellular, N = 15, n = 122.

These results are taken from paper PMC10380488, “Cx43 Hemichannel and Panx1 Channel Modulation by Gap19 and ^10Panx1 Peptides” (International Journal of Molecular Sciences, 2023).

“And” between values parts separate entries of the source, which are not always exact repeats. Equal values may be shown once. “Also recorded” adds a separate entry of the source.

T1 sequence (P60570 whole entry): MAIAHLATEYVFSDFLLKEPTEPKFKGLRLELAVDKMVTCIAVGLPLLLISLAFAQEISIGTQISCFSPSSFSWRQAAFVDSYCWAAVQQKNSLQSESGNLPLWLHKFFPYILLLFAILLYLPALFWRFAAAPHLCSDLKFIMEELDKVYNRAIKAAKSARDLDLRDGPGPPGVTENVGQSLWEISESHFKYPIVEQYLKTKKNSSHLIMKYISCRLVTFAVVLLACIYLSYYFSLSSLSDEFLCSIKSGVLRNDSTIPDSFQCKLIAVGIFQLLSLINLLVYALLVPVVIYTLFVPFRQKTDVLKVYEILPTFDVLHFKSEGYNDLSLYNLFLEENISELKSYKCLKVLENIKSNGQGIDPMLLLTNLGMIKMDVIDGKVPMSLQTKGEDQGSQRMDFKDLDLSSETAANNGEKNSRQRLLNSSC

Take KQIEIKKFK [Gap19]: in assay [1], the “effect on Cx43 HC gating” value is on record as “gating modifier”. Besides, the “effect on ATP release from Panx1-overexpressing cells” value in assay [2] was “does not affect ATP release”. In addition, the “selectivity for Cx43 or Panx1 channels” value in assay [3] was “good selectivity”. For the same sequence, the “reduction of NPo of Cx43 HCs” value is recorded as “significantly reduces the NPo of Cx43 HCs; also recorded: more than halved the NPo” in assay [4] (100 μM Gap19 intracellular) and 84% in assay [4] (500 μM Gap19 intracellular, vs control). The “nominal open probability (NPo) of Cx43 HCs” value is 0.21 ± 0.02 in assay [4] (100 μM Gap19 intracellular (pipette), N = 12 cells, n = 98 traces); 0.18 ± 0.02 in assay [4] (200 μM Gap19 intracellular (pipette), N = 15 cells, n = 122 traces); 0.08 ± 0.01 in assay [4] (500 μM Gap19 intracellular (pipette), N = 12 cells, n = 88 traces). For the same sequence, the entries for the “conductance γ of Cx43 HC, subconductance state, transition histogram” value in assay [4] (setting [7]) and in assay [4] (setting [8]) were 86 ± 31 pS and 87 ± 27 pS, respectively. Besides, the “unitary conductance γ of Cx43 HC, fully open state, transition histogram” value in assay [4] (setting [7]) was 201 ± 50 pS; in assay [4] (setting [8]), 201 ± 45 pS. Further, the “conductance γ of Cx43 HC, all-point histogram” value in assay [4] (Figure 3C, 100 μM Gap19 intracellular) was 204 ± 46 pS. Besides, in assay [4] (Gap19 intracellular / ^10Panx1 extracellular, 100-500 μM (Gap19 100–200 μM)), the “inhibition of Cx43 HC opening activity (in words)” value is “Inhibited; also recorded: concentration-dependent and significant inhibition; also recorded: concentration-dependently inhibits Cx43 HCs; also recorded: significantly inhibits Cx43 HCs”. The “effect on Cx43 HC gating (fully open state vs subconductance state)” value in assay [4] (Gap19 intracellular / ^10Panx1 extracellular, from 100 µM) was “reduced the frequency of transitions to the fully open state and increased the propensity of subconductance transitions starting from 100 µM; also recorded: increased gating to the subconductance state; also recorded: acts as a gating modifier, reducing transitions to the fully open state (~210 pS) while increasing the number of transitions to the subconductance state (~80 pS”. For the same sequence, the “effect on Panx1 channels” value in assay [5] (100 μM Gap19 intracellular) is “without affecting the Panx1 channels”. Besides, the “nominal open probability (NPo) of Panx1 channels” value in assay [5] (100 μM Gap19 intracellular (pipette), N = 12 cells, n = 76 traces) is listed as 0.34 ± 0.03; in assay [5] (200 μM Gap19 intracellular (pipette), N = 9 cells, n = 70 traces) it was 0.30 ± 0.03; in assay [5] (500 μM Gap19 intracellular (pipette), N = 10 cells, n = 87 traces) it was 0.28 ± 0.03. In addition, the “effect on open-state events of Panx1, all-point histograms” value in assay [5] (200 µM Gap19 intracellular, Figure 1C) is on record as “some effect; also recorded: to some extent”. Moreover, in assay [5] (500 μM Gap19 intracellular, vs control, significant), the “reduction of NPo of Panx1 channels” value is ~ 25% and 26%. The “effect on Panx1 channel activity (NPo)” value in assay [5] (100 and 200 μM Gap19 intracellular (below 500 μM)) is “did not significantly affect the NPo of the Panx1 channel; also recorded: non-significant effects on Panx1 channel activity; also recorded: without affecting Panx1 channel function; also recorded: No Effect below 500 µM”. Further, the “fast-flickering closures of Panx1 channel” value in assay [5] (traces of Panx1 channel activity (Supplementary Figure S2)) was “not observed”. The “interaction with the Cx43 C-terminal tail” value in assay [6] was “interacts with the Cx43 C-terminal tail”.
